Reference: patent US20260131003A1, “Method and kit for treating skin infections” (Koite Health Oy, priority 2020, published 2026)

System: Staphylococcus aureus biofilm
Test: Monospecies S. aureus biofilm model, light exposure after ICG incubation, CFU counting
Assay type: cell-based
Conditions: for reduction in bacterial counts: three-day maturated biofilm
Method: Monospecies S. Aureus biofilm model experiments were performed to study the effect of single, or recurring application of dual-light aPDT or its parts during the biofilm formation process. Flat-bottom Nunclon Delta well plates (Thermo Fisher Scientific Inc, US), were used, and the biofilm experiments were divided into different setups based on maturation age and the therapy given.
Applications of both single- and dual-light therapies were scheduled to mimic the daily use of antibacterial light therapy. The total amount of […] as kept unchanged in different treatment protocols, and the concentration of the ICG photosensitizer (if given) were identical. In the first setting, S. aureus biofilm was incubated for either one day or three days, and a single dose of light with ICG was applied at the end of the growth period. In the second setting, the biofilm was incubated for either three days or six days, and a daily dose of light ICG with was applied during incubation. In each setting, the last treatment was followed by plating onto brain heart infusion (BHI)-agar dishes for colony-forming unit (CFU) counting.
Staphylococcus Aureus bacteria were grown for 18 h in an incubator (NuAire DH autoflow 5500, NuAire inc, US), at +36 degrees C, 5% CO2 in BHI broth (Bio-Rad 3564014, Bio-Rad Laboratories, Inc, US). The resulting bacterial suspension was diluted with a 0.9% NaCl solution until an optical density (OD) of 0.46 was reached. The optical density was measured by a spectrophotometer (Varian Cary 100 Bio UV-VIS, Agilent Technologies, Inc, US), and then with a Den 1 McFarland Densitometer (Biosan, Riga, Latvia).
Biofilms were grown in flat-bottom 96-well plates (Thermo Fisher Scientific Inc, US) by placing 100 μl of 0.46 OD S. aureus suspension in each well, with 100 μl of BHI-broth growth medium. The well plates were then incubated in a growth chamber (36° C., 5% CO^2). The BHI-broth medium was changed daily to supply fresh growth medium and to wash away the debris. The change of the medium in each well was performed by removing 100 μl of the medium and replacing it with a similar amount of fresh BHI broth.
Before the light exposure took place, the growth medium was meticulously removed by pipetting and subsequently replaced with an equal amount of indocyanine green solution (Verdye, Diagnostic Green, GmBH), tittered to a concentration of 250 μg/ml. The indocyanine green was left to incubate at room temperature and in the dark for 10 minutes. After this incubation period, the biofilm was washed with a 0.9% NaCl solution. Then, the 0.9% solution of NaCl was added to each well to reach a total volume of 200 μl.
Light exposure was performed using specific, custom-made LED light sources (Lumichip Oy, Espoo, Finland). The exposure time was calculated from the determined light amount and known irradiances, which had been previously measured with a light energy meter (Thorlabs PM 100D with S121C sensor head, Thorlabs Inc, US) and a spectroradiometer (BTS256, Gigahertz-Optik GmbH, Germany), respectively. After the exposure, the BHI broth was changed and the plates were placed in the incubator, or, if the light exposure was final, the biofilm was scraped for CFU counting, as described below. Excitation lights were applied with two single-wave LED light sources with peak intensities at 810 nm or at 405 nm, and with a dual-wave LED light chip simultaneously producing two separate peak intensities at 405 nm and at 810 nm.
Antibacterial photodynamic therapy light exposure was administered at an 810-nm peak wavelength LED array on top of the well plate. The resulting light irradiance was 100 mW/cm^2, and the provided light energy was 100 J/cm^2. Antibacterial blue light was administered at a 405-nm peak wavelength LED array, with a resulting irradiance of 80 mW/cm^2, and resulting light energy of 100 J/cm^2. […]

CC1(C)C(/C=C/C=C/C=C/C=C2\N(CCCCS(=O)(=O)O)c3ccc4ccccc4c3C2(C)C)=[N+](CCCCS(=O)(=O)[O-])c2ccc3ccccc3c21 [ICG, indocyanine green]
antibacterial effectivity by dual-light relative energy ratio (1/4 NIR (810 nm) to 3/4 aBL (405 nm) compared with 1/1 and 3/4 NIR to 1/4 aBL, largest difference in 6-day daily treated biofilm): most effective | antibacterial efficacy of simultaneous ICG/810-nm aPDT and 405-nm aBL versus single-light aPDT or aBL (S. aureus biofilm, overall conclusion): significantly improved antibacterial efficacy | antibacterial efficiency of dual-light aPDT versus single light (CFU count) (one-day biofilm, single dose, ICG 250 μg/ml, 405 nm + 810 nm simultaneously, total 100 J/cm^2): significantly more efficient than single-light aBL or aPDT | antibacterial effect (CFU count) (one-day biofilm, single light dose, ICG 250 μg/ml, all modalities (single-light aPDT 810 nm, dual-light aPDT)): bactericidal | reduction in bacterial counts (single exposure of aPDT (ICG 250 μg/ml, 810 nm, 100 J/cm^2)): four | reduction in bacterial counts (single exposure of dual-light aPDT (ICG 250 μg/ml, 405 nm + 810 nm)): four
